Assays:
[1] = target: T1, Protein kinase C epsilon type (Homo sapiens, UniProt Q02156); assay: Displacement of [3H]- PDBu from Protein kinase C epsilon C1a domain
T1 sequence (Q02156 whole entry): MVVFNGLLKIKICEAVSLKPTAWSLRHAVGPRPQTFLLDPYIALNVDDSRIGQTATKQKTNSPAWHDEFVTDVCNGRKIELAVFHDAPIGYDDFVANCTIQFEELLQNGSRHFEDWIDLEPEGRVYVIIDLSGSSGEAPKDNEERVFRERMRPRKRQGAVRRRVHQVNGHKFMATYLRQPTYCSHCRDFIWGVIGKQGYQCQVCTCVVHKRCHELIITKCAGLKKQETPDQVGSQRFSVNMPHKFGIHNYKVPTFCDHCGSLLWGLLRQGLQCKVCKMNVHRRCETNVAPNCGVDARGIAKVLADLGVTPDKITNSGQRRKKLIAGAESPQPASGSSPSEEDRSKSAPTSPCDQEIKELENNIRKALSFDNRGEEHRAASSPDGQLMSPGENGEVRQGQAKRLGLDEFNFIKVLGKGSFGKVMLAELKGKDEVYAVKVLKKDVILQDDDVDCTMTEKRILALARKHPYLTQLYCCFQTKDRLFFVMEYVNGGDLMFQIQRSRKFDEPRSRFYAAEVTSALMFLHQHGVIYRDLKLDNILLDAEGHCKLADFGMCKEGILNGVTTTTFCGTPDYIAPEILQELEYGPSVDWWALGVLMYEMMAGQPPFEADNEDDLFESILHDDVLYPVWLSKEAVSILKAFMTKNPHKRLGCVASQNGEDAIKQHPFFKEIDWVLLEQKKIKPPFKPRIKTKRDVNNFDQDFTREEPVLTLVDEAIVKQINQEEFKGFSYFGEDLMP

[2] = target: Protein kinase C theta type (Homo sapiens, UniProt Q04759); assay: Displacement of [3H]- PDBu from Protein kinase C theta C1b domain
[3] = target: T1, Protein kinase C epsilon type; assay: Displacement of [3H]- PDBu from Protein kinase C epsilon C1b domain
[4] = target: T2, Protein kinase C gamma type (Homo sapiens, UniProt P05129); assay: Displacement of [3H]- PDBu from Protein kinase C gamma C1a domain
[5] = target: T3, Protein kinase C delta type (Homo sapiens, UniProt Q05655); assay: Displacement of [3H]- PDBu from Protein kinase C delta C1b domain
[6] = target: T4, Protein kinase C alpha type (Homo sapiens, UniProt P17252); assay: Displacement of [3H]- PDBu from Protein kinase C alpha C1b domain
[7] = target: T4, Protein kinase C alpha type; assay: Displacement of [3H]- PDBu from Protein kinase C alpha C1a domain
[8] = target: T5, Protein kinase C beta type (Homo sapiens, UniProt P05771); assay: Displacement of [3H]- PDBu from Protein kinase C beta C1b domain
[9] = target: T2, Protein kinase C gamma type; assay: Displacement of [3H]- PDBu from Protein kinase C gamma C1b domain
[10] = target: T6, Protein kinase C eta type (Homo sapiens, UniProt P24723); assay: Displacement of [3H]- PDBu from Protein kinase C eta C1b domain
[11] = target: T3, Protein kinase C delta type; assay: Displacement of [3H]- PDBu from Protein kinase C delta C1a domain
[12] = target: T6, Protein kinase C eta type; assay: Displacement of [3H]- PDBu from Protein kinase C eta C1a domain
[13] = target: T5, Protein kinase C beta type; assay: Displacement of [3H]- PDBu from Protein kinase C beta C1a domain

T5 sequence (P05771 whole entry, the tested form may be a part): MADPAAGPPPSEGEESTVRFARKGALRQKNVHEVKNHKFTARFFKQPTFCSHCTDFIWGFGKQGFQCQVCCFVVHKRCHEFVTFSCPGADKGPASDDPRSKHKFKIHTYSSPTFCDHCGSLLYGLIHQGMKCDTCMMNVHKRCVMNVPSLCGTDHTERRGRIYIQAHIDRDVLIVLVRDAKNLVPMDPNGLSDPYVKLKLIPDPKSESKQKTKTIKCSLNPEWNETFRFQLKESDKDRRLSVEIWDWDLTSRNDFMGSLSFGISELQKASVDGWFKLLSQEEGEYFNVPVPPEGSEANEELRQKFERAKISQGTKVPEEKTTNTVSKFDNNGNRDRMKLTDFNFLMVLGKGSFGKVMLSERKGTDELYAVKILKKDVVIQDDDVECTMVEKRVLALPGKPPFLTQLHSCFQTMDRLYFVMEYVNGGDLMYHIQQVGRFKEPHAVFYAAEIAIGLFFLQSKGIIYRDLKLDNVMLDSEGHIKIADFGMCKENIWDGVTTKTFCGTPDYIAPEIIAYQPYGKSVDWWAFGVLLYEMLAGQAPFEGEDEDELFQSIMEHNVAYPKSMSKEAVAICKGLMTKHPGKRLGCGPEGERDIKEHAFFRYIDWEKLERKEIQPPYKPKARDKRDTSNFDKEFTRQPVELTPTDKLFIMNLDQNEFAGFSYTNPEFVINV
T6 sequence (P24723 whole entry, the tested form may be a part): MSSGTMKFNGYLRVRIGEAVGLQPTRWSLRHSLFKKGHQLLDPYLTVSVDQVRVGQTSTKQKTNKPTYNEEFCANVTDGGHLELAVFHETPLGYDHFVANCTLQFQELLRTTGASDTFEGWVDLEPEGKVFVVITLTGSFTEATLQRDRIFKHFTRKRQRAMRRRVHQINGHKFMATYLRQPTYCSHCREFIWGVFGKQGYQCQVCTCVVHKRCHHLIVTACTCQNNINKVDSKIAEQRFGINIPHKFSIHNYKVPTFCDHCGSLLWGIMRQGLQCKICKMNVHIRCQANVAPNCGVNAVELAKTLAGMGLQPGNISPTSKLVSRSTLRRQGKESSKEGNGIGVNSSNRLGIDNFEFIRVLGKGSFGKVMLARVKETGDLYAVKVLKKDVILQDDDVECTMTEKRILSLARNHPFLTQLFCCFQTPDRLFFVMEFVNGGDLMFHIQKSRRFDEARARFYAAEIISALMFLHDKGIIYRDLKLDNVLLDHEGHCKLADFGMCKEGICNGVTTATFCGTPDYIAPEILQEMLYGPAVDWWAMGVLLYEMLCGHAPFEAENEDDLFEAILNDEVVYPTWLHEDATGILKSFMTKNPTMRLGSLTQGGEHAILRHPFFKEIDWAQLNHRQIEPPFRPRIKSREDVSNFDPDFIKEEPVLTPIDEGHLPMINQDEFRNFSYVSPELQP
T3 sequence (Q05655 whole entry, the tested form may be a part): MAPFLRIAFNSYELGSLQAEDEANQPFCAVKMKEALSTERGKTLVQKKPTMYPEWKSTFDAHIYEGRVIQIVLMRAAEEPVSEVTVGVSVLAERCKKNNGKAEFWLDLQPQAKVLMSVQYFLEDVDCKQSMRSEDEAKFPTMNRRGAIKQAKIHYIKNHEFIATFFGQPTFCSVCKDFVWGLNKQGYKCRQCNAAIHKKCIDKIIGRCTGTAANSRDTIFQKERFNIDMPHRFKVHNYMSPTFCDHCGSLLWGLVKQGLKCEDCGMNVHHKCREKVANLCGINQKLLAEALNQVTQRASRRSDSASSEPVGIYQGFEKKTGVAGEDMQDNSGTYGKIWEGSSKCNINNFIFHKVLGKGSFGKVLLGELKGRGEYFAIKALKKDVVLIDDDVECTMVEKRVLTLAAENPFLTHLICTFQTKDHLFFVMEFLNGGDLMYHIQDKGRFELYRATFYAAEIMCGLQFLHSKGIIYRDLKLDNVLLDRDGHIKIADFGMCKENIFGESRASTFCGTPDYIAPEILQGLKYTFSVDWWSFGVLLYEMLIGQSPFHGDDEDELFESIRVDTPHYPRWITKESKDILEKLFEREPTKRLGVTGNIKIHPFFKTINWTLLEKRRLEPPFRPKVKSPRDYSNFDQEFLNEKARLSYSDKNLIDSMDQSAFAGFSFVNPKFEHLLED
Protein kinase C theta type, sequence (Q04759 whole entry, the tested form may be a part): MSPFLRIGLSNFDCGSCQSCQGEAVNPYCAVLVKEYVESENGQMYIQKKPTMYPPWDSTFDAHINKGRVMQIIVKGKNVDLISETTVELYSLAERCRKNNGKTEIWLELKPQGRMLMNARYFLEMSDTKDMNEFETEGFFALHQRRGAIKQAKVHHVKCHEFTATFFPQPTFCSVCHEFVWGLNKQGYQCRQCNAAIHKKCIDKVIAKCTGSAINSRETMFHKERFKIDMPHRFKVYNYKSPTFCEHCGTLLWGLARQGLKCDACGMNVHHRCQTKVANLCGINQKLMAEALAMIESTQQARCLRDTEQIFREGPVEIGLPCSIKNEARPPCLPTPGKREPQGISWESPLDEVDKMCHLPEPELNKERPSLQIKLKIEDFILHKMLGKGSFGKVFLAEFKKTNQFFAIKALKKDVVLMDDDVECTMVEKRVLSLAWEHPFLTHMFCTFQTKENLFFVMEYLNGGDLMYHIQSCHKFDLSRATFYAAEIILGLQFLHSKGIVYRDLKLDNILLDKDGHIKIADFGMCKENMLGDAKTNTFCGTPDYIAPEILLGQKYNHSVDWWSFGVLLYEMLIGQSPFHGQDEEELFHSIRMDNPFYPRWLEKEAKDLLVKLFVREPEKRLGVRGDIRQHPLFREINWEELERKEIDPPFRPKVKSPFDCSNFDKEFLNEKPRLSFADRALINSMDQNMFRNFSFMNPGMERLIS

| Structure (SMILES) | Ki [1] [nM] | Ki [2] [nM] | Ki [3] [nM] | Ki [4] [nM] | Ki [5] [nM] | Ki [6] [nM] | Ki [7] [nM] | Ki [8] [nM] | Ki [9] [nM] | Ki [10] [nM] | Ki [11] [nM] | Ki [12] [nM] | Ki [13] [nM] |
| --- | --- | --- | --- | --- | --- | --- | --- | --- | --- | --- | --- | --- | --- |
| CC(C)[C@H]1C(=S)N[C@H](CO)Cc2c[nH]c3cccc(c23)N1C | 3860 | 61.6 | 41.5 | 296 | 67.5 | 2140 | 261 | 226 | 288 | 20.6 | 2950 | 2160 | 180 |
| CC(C)[C@H]1C(=O)N[C@H](CO)Cc2c[nH]c3cccc(c23)N1C [INDOLACTUM] | 4110 | 8.7 | 7.7 | 138 | 8.3 | 4000 | 127 | 136 | 213 | 5.5 | 1900 | 3770 | 173 |

From ChEMBL document CHEMBL1133311, “Synthesis and PKC isozyme surrogate binding of indothiolactam-V, a new thioamide analogue of tumor promoting indolactam-V” (Bioorg Med Chem Lett, 2000)
